From patent US20250270549A1, “MSI2 AS A THERAPEUTIC TARGET FOR THE TREATMENT OF MYOTONIC DYSTROPHY” (UNIVERSITAT DE VALÈNCIA, priority 2021, published 2025)

Key:
miR-7 = miR-7 quantification by RT-qPCR in MD1 cells; type: cell-based, human
Protocol: (§1) TDMs were cultured as previously described^1. After 4 days in differentiation medium (MDM), cells were transfected with a combination of two siRNAs (SEQ ID NO: 40 and 43) targeting MSI2 transcripts (final concentration 100 nM) using Lipofectamine RNAiMAX transfection reagent (Invitrogen, Madrid, Spain)) following the manufacturer's recommendations. After 48 h, the medium containing the siRNAs was replaced by fresh MDM. 24 h later, cells were collected. As a control, the same protocol was performed using 100 nM of a siRNA with a scrambled sequence (Cat #4390843 for negative control). Gapmers against MSI2 and agomiR-107 were transfected following the same protocol using two different concentrations, 30 and 150 nM in the case of Gapmers and 100 and 300 nM in the case of agomiR-107. To treat cells with the small molecule Ro-08-2750 (Tocris Cat. No. 2272, Bristol, UK)), cells were cultured as before. Briefly, after 96 h in MDM, the medium was supplemented with Ro-08-2750 at a final concentration of 10 μM (0.8% DMSO) or with the vehicle, DMSO 0.8%, for 48 h. Then cells were collected for further analyses.
(§2) All the procedures were performed as previously described^1.

P21 = P21 expression by RT-qPCR in MD1 muscle cells; type: cell-based, H. sapiens
Protocol: as §1, §2

immortalized myoblasts = assay: Fusion index of immortalized DM1 myoblasts (anti-Desmin immunofluorescence); type: cell-based, human; conditions: 10 μM for the last 48 h
Protocol: Immortalized myoblasts were cultured in a growth medium consisting of a mix of 199:DMEM (1:4 ratio; Life Technologies) supplemented with 20% FBS (Life Technologies), 50 μg/ml gentamycin (Life technologies), 25 μg/ml fetuin, 0.5 ng/ml bFGF, 5 ng/ml EGF and 0.2 μg/ml dexamethasone (Sigma-Aldrich). Myogenic differentiation is induced by switching confluent cell cultures to DMEM supplemented with 5 μg/ml insulin for myoblasts. […] In the case of fusion index determinations at 7, 10, and 14 days, the compound was added for the last 48 h.
Desmin immunostaining and fusion index and diameter determination were performed as previously described^3. For MSI2 immunodetection, 3.5×10^4 fibroblasts/well were seeded in 24 well plates. After 7 days of differentiation into myotubes, cells were fixed with 4% paraformaldehyde (PFA) for 15 min. After 3 washes with PBS-T (0.1%×-TritonX-100 in PBS 1×) cells were blocked (PBS-T, 1% BSA, 5% normal goat serum) for 1 h and incubated with rabbit anti-MSI2 antibody (1:100, Abcam, EP1305Y, Cambridge, UK) in blocking buffer for 48 h at 4° C. After three washes with PBS-T, cells were incubated for 1 h with goat anti-rabbit-FITC IgG (1:200, Sigma-Aldrich, St. Louis, Missouri) in blocking buffer. Finally, cells were washed thrice with PBS 1× and were counterstained and mounted with VECTASHIELD® mounting medium containing DAPI (Vector Laboratories, London, UK) to detect the nuclei. Images were taken in a confocal microscope LSM800 (Zeiss) at 400× magnification.

[1] = test system: UPS system and muscle degradation genes; assay: qRT-PCR of genes involved in catabolic pathways leading to muscle degradation; type: cell-based, human; conditions: 10 μM; immortalized and primary DM1 myoblasts
Protocol: FIG. 13. MSI2 inhibition in DM1 myoblasts improves pathological phenotypes. (A) MSI2 quantification by western blot and representative blots in control (orange) and DM1 myoblasts treated with vehicle 0.8% DMSO (gray) or 10 μM Ro-08-2750 (red) during the last 48 h of 7-day differentiated myotubes; GAPDH expression was used as an endogenous control. (B) Quantification by qRT-PCR of MSI2 and its direct targets miR-7, P21, and TGFBR1 in the same conditions as those described in (A). (C) Quantification by qRT-PCR of the relative expression of genes involved in catabolic pathways leading to muscle degradation in DM1 treated with vehicle (gray dashed line) and control myoblasts (orange) or DM1 cells treated with compound (red). […] (G) Quantification of myogenic fusion index of the conditions represented in (D)-(F) at 7, 10, and 14 days of differentiation (n=10-15 images). (K) Quantification of the number of LC3 puncta per square micrometer. […] Quantification by western blot of (L) ATG4A and (M) ATG7. Representative blots used for quantification are shown on the side of the bar graphs. […]
FIG. 14. […] (A and B) Quantification by qRT-PCR of the indicated genes in control primary myoblasts (line CNT-10, orange dashed line) and two DM1 lines, DM1-14 and DM1-16, treated with vehicle (0.8% DMSO; gray) or 10 μM Ro-08-2750 (red) for 48 h in 7-day differentiation cultures. […]

## Cc1cc2nc3c(=O)[nH]c(=O)nc-3n(C)c2cc1C=O [Ro 08-2750, 2,3,4,10-Tetrahydro-7,10-dimethyl-2,4-dioxobenzo[g]pteridine-8-carboxaldehyde]
miR-7; MD1 TDMs, Ro-08-2750 at 10 μM or the agomiR
  miR-7 levels: significant derepression
miR-7; MD1 cells, ASO 30 nM, Ro 08-2750 10 μM, siRNA 100 nM, * significant
  FC miR-7 expression respect to MD1, Low concentration: 2.52 fold
P21; 10 μM, all cell lines (immortalized DM1 myoblasts, DM1-14, DM1-16)
  expression of P21: rescued
P21; MD1 TDMs, Ro-08-2750 10 μM / agomiR-107
  P21 levels: not to produce a significant effect
Immortalized myoblasts; day 7 of differentiation
  fusion index improved compared to DM1 cells treated with vehicle only: 160%
Immortalized myoblasts; day 10 of differentiation
  fusion index improved compared to DM1 cells treated with vehicle only: 77%
Immortalized myoblasts; day 14 of differentiation
  fusion index improved compared to DM1 cells treated with vehicle only: 95%
[1]
  expression of UPS system and muscle degradation genes: significantly rescued
